This is an account of results in patent publication US10167299B2, “1-(3-aminopropyl) substituted cyclic amine compounds, preparation method therefor, and pharmaceutical compositions and uses thereof” (SHANGHAI INSTITUTE OF MATERIA MEDICA, CHINESE ACADEMY OF …, priority 2013, dated 2019).

Read-outs that look alike come from different tables or passages of the source.

This assay deals with CCR5 (Homo sapiens (Human), UniProt P51681). The assay is described as follows: Calcium flux inhibition experiment. It counts as cell-based. Conditions: for calcium influx inhibition effect in words, versus positive control compounds: conclusion from Table 1. An excerpt: Experiment apparatus: FlexStation II
Sequence of CCR5 (P51681 whole entry): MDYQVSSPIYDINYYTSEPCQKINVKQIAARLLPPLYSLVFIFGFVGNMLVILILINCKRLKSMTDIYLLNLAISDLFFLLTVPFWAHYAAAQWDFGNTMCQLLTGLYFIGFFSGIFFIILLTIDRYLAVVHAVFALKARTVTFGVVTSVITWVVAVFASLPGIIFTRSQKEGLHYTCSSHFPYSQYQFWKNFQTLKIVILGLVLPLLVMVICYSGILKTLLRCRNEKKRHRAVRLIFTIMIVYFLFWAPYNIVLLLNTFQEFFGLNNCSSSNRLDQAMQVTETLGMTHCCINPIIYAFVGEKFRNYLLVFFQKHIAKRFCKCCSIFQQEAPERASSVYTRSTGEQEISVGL
Experiment materials: HEK293/CCR5-Gα16 cell line, Fluo-4calcium dye (fluorescent-4 calcium ion dye) and FlexStation instrument.
Experiment theory: Activation of the receptor can cause the activation of Gα16 protein, thereby activating phospholipase C (PLC) to generate IP3 and DAG by establishing CCR5 and Ga16 co-transfected cell line. IP3 can bind to IP3 receptors on the endoplasmic reticulum and mitochondria in a cell, which can cause the release of intracellular calcium. Thus, determination of changes in intracellular calcium can be used as a method to detect CCR5 activation state. Fluo-4/AM is a fluorescent probe indicator for calcium used to measure calcium ion. As a non-polar lipid-soluble compound, after it enters into cells, AM group is dissociated to release Fluo-4 under the effect of cell lipolysis enzyme. Fluo-4 is a polar molecule and not easy to go through the lipid bilayer membrane, therefore it can stay within the cells for a long time. Ultimately, the level of activated Ga protein can be reflected by measuring the excited fluorescence intensity. If the screened compound can activate CCR5, it can greatly increase the calcium flux reaction; on the contrary, if the screened compound can antagonize CCR5, it can greatly reduce calcium flux reaction.
1. HEK293 cells which can stably express CCR5 were inoculated in a 96-well plate and incubated overnight.
2. The medium in each well into which cells were innoculated was removed and 40 μl/well of freshly prepared dye was added. The plate was placed in a 37° C. incubator and incubated for 40 minutes at constant temperature.
3. The medicament to be determined was diluted with calcium buffer to eight concentration gradients, which is 1×10^−4 M, 1×10^−5 M, 1×10^−6 M, 1×10^−7 M, 1×10^−8 M, 1×10^−9 M, 1×10^−10 M, and 1×10^−11 M, respectively, and homogeneously mixed.
4. The dye was removed. Freshly prepared calcium buffer was used to wash for one time, 50 μl of calcium buffer was added.
5. FlexStation II was used for detection. 25 μl of calcium buffer containing the medicament to be determined was added automatically from the 15th second.

[1] abbreviates: HEK293/CCR5-Gα16 cell line, calcium flux, read-out: CCR5 IC50.

For the compound `Cc1nnc(C(C)C)n1C1CC2CCC(C1)N2CC[C@H](NC(=O)C1CCCCC1)c1nccs1` (stereo partly drawn) [Compound 116, N-[(1S)-3-[exo-3-(3-isopropyl-5-methyl-4H-1,2,4-triazol-4-yl)-8-azabicyclo[3.2.1]octane-8-yl]-1-(thiazol-2-yl)propyl]cyclohexane-1-carboxamide], the IC50 (as a rule, the concentration needed to halve the response being measured) under setting [1] came to 15.6 nM.

Turning to `CC(=O)Nc1ccc([C@H](CCN2C3CCC2CC(n2c(C)nnc2C(C)C)C3)NC(=O)C2CCCC2)s1` (stereo partly drawn) [Compound 139, N-[(1S)-3-[exo-3-(3-isopropyl-5-methyl-4H-1,2,4-triazol-4-yl)-8-azabicyclo[3.2.1]octane-8-yl]-1-(5-acetamidothiophen-2-yl)propyl]cyclopentane-1-carboxamide], the IC50 under setting [1] stood at 12.3 nM.

For the compound `Cc1nnc(C(C)C)n1C1CC2CCC(C1)N2CC[C@H](NC(=O)Cc1nnn[nH]1)c1ccc(F)s1` (stereo partly drawn) [Compound 163, N-[(1S)-3-[exo-3-(3-isopropyl-5-methyl-4H-1,2,4-triazol-4-yl)-8-azabicyclo[3.2.1]octane-8-yl]-1-(5-fluorothiophen-2-yl)propyl]-2-(1H-tetrazol-5-yl)acetamide], the IC50 under setting [1] was 13.3 nM.

Regarding `Cc1nnc(C(C)C)n1C1CC2CCC(C1)N2CC[C@H](NC(=O)Cn1ncnn1)c1cccs1` (stereo partly drawn) [Compound 152, N-[(1S)-3-[exo-3-(3-isopropyl-5-methyl-4H-1,2,4-triazol-4-yl)-8-azabicyclo[3.2.1]octane-8-yl]-1-(thiophen-2-yl)propyl]-2-(2H-tetrazol-2-yl)acetamide], the “calcium influx inhibition effect in words, versus positive control compounds” value is listed as “comparable to the positive control compounds”. The IC50 under setting [1] is 7.98 nM.

As to `COC(=O)c1ccc([C@H](CCN2C3CCC2CC(n2c(C)nnc2C(C)C)C3)NC(=O)C2CCC(F)(F)CC2)s1` (stereo partly drawn) [Compound 73, 4,4-difluoro-N-[(1S)-3-[exo-3-(3-isopropyl-5-methyl-4H-1,2,4-triazol-4-yl)-8-azabicyclo[3.2.1]octane-8-yl]-1-(5-methoxycarbonylthiophen-2-yl)propyl]cyclohexane-1-carboxamide], the IC50 stood at 8.23 nM.

As to `CNC(=O)c1ccc([C@H](CCN2C3CCC2CC(n2c(C)nnc2C(C)C)C3)NC(=O)C2CCCC2)s1` (stereo partly drawn) [Compound 142, 5-[(1S)-1-(cyclopentaneformamido)-3-[exo-3-(3-isopropyl-5-methyl-4H-1,2,4-triazol-4-yl)-8-azabicyclo[3.2.1]octane-8-yl]-propyl]-N-methylthiophene-2carboxamide], the “calcium influx inhibition effect in words, versus positive control compounds” value is recorded as “comparable to the positive control compounds”. Under setting [1], the IC50 was 9.55 nM.

As to `CC(=O)N1CCc2c(nc(C)n2C2CC3CCC(C2)N3CC[C@H](NC(=O)C2CCC(F)(F)CC2)c2ccsc2)C1` (stereo partly drawn) [Compound 42, 4,4-difluoro-N-{(1S)-1-(thiophen-3-yl)-3-[(3-endo)-3-(5-acetyl-2-methyl-4,5,6,7-tetrahydro-1H-imidazo[4,5-c]pyridin-1-yl)-8-azabicyclo[3.2.1]octane-8-yl]propyl}cyclohexane-1-carboxamide], the IC50 under setting [1] turned out to be 15.9 nM.

Consider `COc1ccc([C@H](CCN2C3CCC2CC(n2c(C)nnc2C(C)C)C3)NC(=O)C2CCN(S(C)(=O)=O)CC2)s1` (stereo partly drawn) [Compound 148, N-[(1S)-3-[exo-3-(3-isopropyl-5-methyl-4H-1,2,4-triazol-4-yl)-8-azabicyclo[3.2.1]octane-8-yl]-1-(5-methoxythiophen-2-yl)propyl]-1-methylsulfonylpiperidine-4-carboxamide], for which the “calcium influx inhibition effect in words, versus positive control compounds” value is on record as “better than the positive control compounds”. For the same compound, under setting [1], the IC50 came out at 3.42 nM.

On to `COc1ccc([C@H](CCN2C3CCC2CC(n2c(C)nnc2C(C)C)C3)NC(=O)CC#N)s1` (stereo partly drawn) [Compound 166, N-[(1S)-3-[exo-3-(3-isopropyl-5-methyl-4H-1,2,4-triazol-4-yl)-8-azabicyclo[3.2.1]octane-8-yl]-1-(5-methoxythiophen-2-yl)propyl]-2-cyanoacetamide], for which the IC50 was determined as 6.54 nM and the “calcium influx inhibition effect in words, versus positive control compounds” value is reported as “better than the positive control compounds”.

Take `COc1ccc([C@H](CCN2C3CCC2CC(n2c(C)nnc2C(C)C)C3)NC(=O)Cn2ncnn2)s1` (stereo partly shown) [Compound 154]: the IC50 is 23.1 nM.

On to `CC(=O)N[C@@H](CCN1C2CCC1CC(n1c(C)nc3c1CCN(C(=O)C(C)C)C3)C2)c1cccc(F)c1` (stereo partly shown) [PF-232798, reference compound], for which the IC50 under setting [1] came out at 8.29 nM.

For the compound `Cc1nnc(C(C)C)n1C1CC2CCC(C1)N2CC[C@H](NC(=O)C1CCN(S(C)(=O)=O)CC1)c1ccc(Cl)s1` (stereo partly drawn) [Compound 150, N-[(1S)-3-[exo-3-(3-isopropyl-5-methyl-4H-1,2,4-triazol-4-yl)-8-azabicyclo[3.2.1]octane-8-yl]-1-(5-chlorothiophen-2-yl)propyl]-1-methylsulfonylpiperidine-4-carboxamide], the “calcium influx inhibition effect in words, versus positive control compounds” value is reported as “better than the positive control compounds”. The IC50 under setting [1] is 2.22 nM.

For `Cc1ccc([C@H](CCN2C3CCC2CC(n2c(C)nnc2C(C)C)C3)NC(=O)C2CCN(S(C)(=O)=O)CC2)s1` (stereo partly shown) [Compound 147], the “calcium influx inhibition effect in words, versus positive control compounds” value is listed as “better than the positive control compounds”. In addition, the IC50 under setting [1] came to 2.48 nM.

For the compound `CCc1ccc([C@H](CCN2C3CCC2CC(n2c(C)nnc2C(C)C)C3)NC(=O)C2CCCCC2)s1` (stereo partly drawn) [Compound 65, N-[(1S)-3-[exo-3-(3-isopropyl-5-methyl-4H-1,2,4-triazol-4-yl)-8-azabicyclo[3.2.1]octane-8-yl]-1-(5-ethylthiophen-2-yl)propyl]cyclohexane-1-carboxamide], the “calcium influx inhibition effect in words, versus positive control compounds” value was “better than the positive control compounds”. Further, the IC50 under setting [1] is 1.62 nM.

For the compound `Cc1nnc(C(C)C)n1C1CC2CCC(C1)N2CC[C@H](NC(=O)Cn1ncnn1)c1ccc(F)s1` (stereo partly drawn) [Compound 157, N-[(1S)-3-[exo-3-(3-isopropyl-5-methyl-4H-1,2,4-triazol-4-yl)-8-azabicyclo[3.2.1]octane-8-yl]-1-(5-fluorothiophen-2-yl)propyl]-2-(2H-tetrazol-2-yl)acetamide], the “calcium influx inhibition effect in words, versus positive control compounds” value is recorded as “better than the positive control compounds”. Further, the half-maximal inhibitory concentration (IC50) under setting [1] was found to be 1.23 nM.

On to `Cc1nnc(C(C)C)n1C1CC2CCC(C1)N2CC[C@H](NC(=O)Cc1nnn[nH]1)c1cccs1` (stereo partly drawn) [Compound 158, N-[(1S)-3-[exo-3-(3-isopropyl-5-methyl-4H-1,2,4-triazol-4-yl)-8-azabicyclo[3.2.1]octane-8-yl]-1-(thiophen-2-yl)propyl]-2-(1H-tetrazol-5-yl)acetamide], for which the IC50 under setting [1] came to 14.9 nM.

As for `Cc1nc2c(n1C1CC3CCC(C1)N3CC[C@H](NC(=O)C1CCC(F)(F)CC1)c1ccsc1)CCN(C(=O)C(C)C)C2` (stereo partly drawn) [Compound 43, 4,4-difluoro-N-{(1S)-1-(thiophen-3-yl)-3-[(3-endo)-3-(5-isobutyryl-2-methyl-4,5,6,7-tetrahydro-1H-imidazo[4,5-c]pyridin-1-yl)-8-azabicyclo[3.2.1]octane-8-yl]propyl}cyclohexane-1-carboxamide], the IC50 under setting [1] was 8.34 nM.

Turning to `CC(=O)N[C@@H](CCN1C2CCC1CC(n1c(C)nc3c1CCN(C(=O)C(C)C)C3)C2)c1ccc(C#N)s1` (stereo partly drawn) [Compound 143, N-{(1S)-3-[(3-endo)-3-(5-isobutyryl-2-methyl-4,5,6,7-tetrahydro-1H-imidazo[4,5-c]pyridin-1-yl)-8-azabicyclo[3.2.1]octane-8-yl]-1-(5-cyanothiophen-2-yl)-propyl}acetamide], the IC50 under setting [1] is 13.9 nM.

As for `COC(=O)c1ccc([C@H](CCN2C3CCC2CC(n2c(C)nnc2C(C)C)C3)NC(=O)C2CCC(F)(F)CC2)s1` (stereo partly drawn) [Compound 88, 4,4-difluoro-N-[(1S)-3-[exo-3-(3-isopropyl-5-methyl-4H-1,2,4-triazol-4-yl)-8-azabicyclo[3.2.1]octane-8-yl]-1-(5-methoxycarbonylthiophen-2-yl)propyl]cyclohexane-1-carboxamide], the IC50 under setting [1] is 9.26 nM.

Consider `Cc1nnc(C(C)C)n1C1CC2CCC(C1)N2CC[C@H](NC(=O)Cn1ncnn1)c1ccc(C#N)s1` (stereo partly drawn) [Compound 155, N-[(1S)-3-[exo-3-(3-isopropyl-5-methyl-4H-1,2,4-triazol-4-yl)-8-azabicyclo[3.2.1]octane-8-yl]-1-(5-cyanothiophen-2-yl)propyl]-2-(2H-tetrazol-2-yl)acetamide], for which the IC50 was found to be 8.23 nM and the “calcium influx inhibition effect in words, versus positive control compounds” value is listed as “comparable to the positive control compounds”.

As to `CCc1ccc([C@H](CCN2C3CCC2CC(n2c(C)nnc2C(C)C)C3)NC(=O)C2CCCC2)s1` (stereo partly shown) [Compound 66], the “calcium influx inhibition effect in words, versus positive control compounds” value was “better than the positive control compounds”. In addition, under setting [1], the IC50 is 2.02 nM.
